Assay results published in ChEMBL document CHEMBL1201862, “PubChem BioAssay data set” (2004).
Activity calls are given as the source filed them. Cut-off read from the data, not from the text of the source, for most assays here: actives have a measured EC50 and inactives only a lower limit.

Columns and labels:
[1] = Luminescence Cell-Based Dose Confirmation HTS to Identify Activators of 5'UTR Stem-Loop Driven Alpha-Synuclein mRNA Translation in H4 Neuroglioblastoma Cells. [Related pubchem assays: 1829 (Project Summary), 1814 (Primary HTS)]; format: functional
[2] = Luminescence Cell-Based Dose Response HTS to Identify Activators of Luciferase Translation or Activity in H4 […] Cells. [Related pubchem assays: 1829 (Project Summary), 1814 (Primary HTS)]; format: functional
H4 = test: Luminescence Cell-Based Dose Response HTS to Identify Activators of 5'UTR Stem-Loop Driven Prion Protein mRNA Translation in H4 Neuroglioblastoma Cells. [Related pubchem assays: 1829 (Project Summary), 1814 (Primary HTS)]; format: functional; conditions: Homo sapiens
Vero = test: cells; format: functional; conditions: Chlorocebus sabaeus
[3] = biological target: Induced myeloid leukemia cell differentiation protein Mcl-1 (Homo sapiens, UniProt Q07820); format: functional
Sequence of Induced myeloid leukemia cell differentiation protein Mcl-1 (Q07820 whole entry): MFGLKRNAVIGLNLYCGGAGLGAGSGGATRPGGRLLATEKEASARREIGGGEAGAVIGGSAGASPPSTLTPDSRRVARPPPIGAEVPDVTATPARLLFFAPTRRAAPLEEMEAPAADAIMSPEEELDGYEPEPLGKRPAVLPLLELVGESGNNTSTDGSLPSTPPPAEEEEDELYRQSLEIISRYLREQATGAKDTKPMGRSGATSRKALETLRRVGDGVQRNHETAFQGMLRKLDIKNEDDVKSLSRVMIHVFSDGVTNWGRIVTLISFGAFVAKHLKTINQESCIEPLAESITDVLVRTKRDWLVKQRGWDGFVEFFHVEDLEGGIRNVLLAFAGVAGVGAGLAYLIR

[4] = biological target: T1, Polyadenylate-binding protein 1 (Homo sapiens, UniProt P11940); test: PABP1 MLLE–PAM2 interaction inhibitors, dose response, miRNA deadenylation inhibitor project, biochemical, fluorescence polarization, Cy5-PAM2 peptide, secondary (AID 602260); format: functional; conditions: read-out: IC50_Mean
T1 sequence (P11940 whole entry): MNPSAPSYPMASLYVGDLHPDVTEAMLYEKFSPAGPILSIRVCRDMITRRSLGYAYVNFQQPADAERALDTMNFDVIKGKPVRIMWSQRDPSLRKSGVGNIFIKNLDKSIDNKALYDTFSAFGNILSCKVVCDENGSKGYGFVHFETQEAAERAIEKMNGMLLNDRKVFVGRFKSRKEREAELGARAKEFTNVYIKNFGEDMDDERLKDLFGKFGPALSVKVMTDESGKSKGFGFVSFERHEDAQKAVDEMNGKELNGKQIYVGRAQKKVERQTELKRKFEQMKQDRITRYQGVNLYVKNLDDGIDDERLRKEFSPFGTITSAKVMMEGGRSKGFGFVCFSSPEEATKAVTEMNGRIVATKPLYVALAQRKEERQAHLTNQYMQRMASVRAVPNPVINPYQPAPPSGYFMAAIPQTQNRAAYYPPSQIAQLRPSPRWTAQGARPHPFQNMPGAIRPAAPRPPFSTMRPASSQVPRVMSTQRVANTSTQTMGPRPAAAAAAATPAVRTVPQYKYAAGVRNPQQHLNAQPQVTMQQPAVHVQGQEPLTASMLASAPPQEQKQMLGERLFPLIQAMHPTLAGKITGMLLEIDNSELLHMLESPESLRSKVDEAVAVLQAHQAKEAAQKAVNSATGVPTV

[5] = biological target: T1, Polyadenylate-binding protein 1; test: PABP1 MLLE–PAM2 binding inhibitor potency, dose response, biochemical, fluorescence polarization, FITC-PAM2 peptide (AID 602259); format: functional; conditions: read-out: IC50_Mean
[6] = biological target: T2, RNA-binding protein pos-1 (Caenorhabditis elegans, UniProt G5EF15); test: inhibitors of POS-1/mex-3 RNA binding, dose response, biochemical, fluorescence polarization (AID 1964);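 note: purified POS-1 fused to maltose binding protein made in E. coli; potency of compounds blocking POS-1 binding to fluorescent RNA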
T2 sequence (G5EF15 whole entry): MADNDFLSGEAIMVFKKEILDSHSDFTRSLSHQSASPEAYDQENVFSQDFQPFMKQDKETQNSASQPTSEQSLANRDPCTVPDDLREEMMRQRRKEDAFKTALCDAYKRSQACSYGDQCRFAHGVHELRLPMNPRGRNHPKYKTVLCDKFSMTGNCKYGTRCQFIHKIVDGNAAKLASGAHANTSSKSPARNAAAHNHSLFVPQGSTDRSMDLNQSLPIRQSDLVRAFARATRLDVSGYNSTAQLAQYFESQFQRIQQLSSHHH

[7] = biological target: T3, Corticotropin-releasing factor receptor 2/Corticotropin-releasing factor-binding protein (Homo sapiens, UniProt P24387+Q13324); test: activators of CRF receptor 2 with binding protein – uHTS hits, confirmation (AID 602473); format: functional; conditions: read-out: EC50_Mean
T3 sequence (Q13324 whole entry): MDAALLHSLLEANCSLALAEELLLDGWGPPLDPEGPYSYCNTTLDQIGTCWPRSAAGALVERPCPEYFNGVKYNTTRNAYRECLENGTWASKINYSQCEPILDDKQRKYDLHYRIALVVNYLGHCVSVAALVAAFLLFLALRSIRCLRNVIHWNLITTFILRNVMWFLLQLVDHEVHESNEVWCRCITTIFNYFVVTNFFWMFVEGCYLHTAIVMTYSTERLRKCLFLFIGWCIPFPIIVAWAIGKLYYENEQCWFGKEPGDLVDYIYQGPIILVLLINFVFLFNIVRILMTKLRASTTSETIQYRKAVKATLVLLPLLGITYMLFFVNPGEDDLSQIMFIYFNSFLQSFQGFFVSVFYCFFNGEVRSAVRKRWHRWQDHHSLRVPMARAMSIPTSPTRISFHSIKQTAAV
T3 sequence (P24387 whole entry): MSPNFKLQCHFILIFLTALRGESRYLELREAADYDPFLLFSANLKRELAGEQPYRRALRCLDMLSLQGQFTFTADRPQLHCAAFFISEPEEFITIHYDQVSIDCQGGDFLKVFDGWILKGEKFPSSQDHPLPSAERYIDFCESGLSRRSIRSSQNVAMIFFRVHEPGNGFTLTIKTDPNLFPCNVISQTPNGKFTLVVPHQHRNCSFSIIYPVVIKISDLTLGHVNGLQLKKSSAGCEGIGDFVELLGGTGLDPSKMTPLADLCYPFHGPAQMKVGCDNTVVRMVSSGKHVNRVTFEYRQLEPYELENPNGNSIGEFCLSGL

[8] = biological target: T4, Zinc finger protein mex-5 (Caenorhabditis elegans, UniProt Q9XUB2); test: MEX-5/TCR-2 RNA interaction inhibitors, dose response, biochemical, C. elegans, fluorescence polarization (AID 1960)
T4 sequence (Q9XUB2 whole entry): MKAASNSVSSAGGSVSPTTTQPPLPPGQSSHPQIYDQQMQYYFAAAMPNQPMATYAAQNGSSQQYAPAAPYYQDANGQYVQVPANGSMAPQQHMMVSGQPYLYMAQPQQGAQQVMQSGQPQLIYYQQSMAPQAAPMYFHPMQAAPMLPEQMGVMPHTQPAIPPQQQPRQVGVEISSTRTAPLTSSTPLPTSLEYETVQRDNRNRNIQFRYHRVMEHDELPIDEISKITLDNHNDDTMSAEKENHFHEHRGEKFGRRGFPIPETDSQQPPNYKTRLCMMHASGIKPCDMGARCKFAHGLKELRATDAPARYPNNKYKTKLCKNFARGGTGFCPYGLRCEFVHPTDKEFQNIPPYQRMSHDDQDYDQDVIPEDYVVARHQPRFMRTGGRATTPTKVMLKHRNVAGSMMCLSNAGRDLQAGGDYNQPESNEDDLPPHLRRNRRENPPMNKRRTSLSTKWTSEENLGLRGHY

[9] = cytotoxicity toward DRD oncogenic fibroblasts, dose response, cell-based, non-viral oncogenic, luminescence (AID 1934); format: functional; conditions: Homo sapiens
BJ [10] = test: cytotoxicity toward BJ-TERT-LT-ST fibroblasts, dose response, cell-based, RAS-independent, luminescence (AID 1935); format: functional; conditions: Homo sapiens;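 note: BJ fibroblasts immortalized with TERT plus LT and ST oncogenes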
BJ [11] = test: cytotoxicity toward BJ-TERT fibroblasts, dose response, cell-based, RAS-independent, luminescence (AID 1933); format: functional; conditions: Homo sapiens
BJ [12] = test: cells; format: functional, cell-based; conditions: Homo sapiens
Paired box protein Pax-8 = Paired box protein Pax-8 (Homo sapiens, UniProt Q06710); test: inhibitors of PAX8-driven TPO luciferase reporter, dose response, RMG-I cells, cherry-pick (AID 687027); format: functional, cell-based;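 note: luciferase reporter driven by Pax8 target thyroperoxidase promoter measured by SteadyGlo luminescence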
Sequence of Paired box protein Pax-8 (Q06710 whole entry): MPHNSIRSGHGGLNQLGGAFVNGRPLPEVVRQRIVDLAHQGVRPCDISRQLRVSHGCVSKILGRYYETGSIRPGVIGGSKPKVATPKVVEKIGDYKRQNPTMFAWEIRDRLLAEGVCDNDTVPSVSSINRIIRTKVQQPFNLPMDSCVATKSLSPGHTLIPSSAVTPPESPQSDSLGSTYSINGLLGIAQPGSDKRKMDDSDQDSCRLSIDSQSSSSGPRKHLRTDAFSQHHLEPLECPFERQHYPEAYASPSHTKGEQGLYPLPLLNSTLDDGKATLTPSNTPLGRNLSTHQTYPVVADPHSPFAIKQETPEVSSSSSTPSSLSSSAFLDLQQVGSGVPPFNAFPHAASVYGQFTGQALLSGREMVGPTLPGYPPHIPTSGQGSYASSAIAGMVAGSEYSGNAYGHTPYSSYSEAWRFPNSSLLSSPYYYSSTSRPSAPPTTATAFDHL

cells [13] = format: functional, cell-based
cells [14] = format: functional, cell-based; remark: listed apart in the source
cells [15] = format: functional
Cytochrome P450 2C9 = Cytochrome P450 2C9 (Homo sapiens, UniProt P11712)
Sequence of Cytochrome P450 2C9 (P11712 whole entry): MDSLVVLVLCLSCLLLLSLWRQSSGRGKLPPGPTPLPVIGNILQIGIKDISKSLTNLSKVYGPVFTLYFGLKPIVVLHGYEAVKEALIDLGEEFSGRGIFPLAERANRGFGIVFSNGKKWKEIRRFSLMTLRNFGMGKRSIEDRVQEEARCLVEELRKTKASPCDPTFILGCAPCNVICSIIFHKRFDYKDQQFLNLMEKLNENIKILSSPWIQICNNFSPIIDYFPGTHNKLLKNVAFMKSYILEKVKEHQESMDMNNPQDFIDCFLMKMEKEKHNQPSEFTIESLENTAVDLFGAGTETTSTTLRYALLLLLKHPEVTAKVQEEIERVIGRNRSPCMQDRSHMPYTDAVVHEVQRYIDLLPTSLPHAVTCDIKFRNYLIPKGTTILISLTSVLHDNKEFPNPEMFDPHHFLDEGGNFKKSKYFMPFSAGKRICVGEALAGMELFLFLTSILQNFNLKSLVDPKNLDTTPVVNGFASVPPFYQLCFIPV

Cytochrome P450 3A4 = Cytochrome P450 3A4 (Homo sapiens, UniProt P08684);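 note: CYP3A4 tested as one member of a cytochrome P450 panel screen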
Sequence of Cytochrome P450 3A4 (P08684 whole entry): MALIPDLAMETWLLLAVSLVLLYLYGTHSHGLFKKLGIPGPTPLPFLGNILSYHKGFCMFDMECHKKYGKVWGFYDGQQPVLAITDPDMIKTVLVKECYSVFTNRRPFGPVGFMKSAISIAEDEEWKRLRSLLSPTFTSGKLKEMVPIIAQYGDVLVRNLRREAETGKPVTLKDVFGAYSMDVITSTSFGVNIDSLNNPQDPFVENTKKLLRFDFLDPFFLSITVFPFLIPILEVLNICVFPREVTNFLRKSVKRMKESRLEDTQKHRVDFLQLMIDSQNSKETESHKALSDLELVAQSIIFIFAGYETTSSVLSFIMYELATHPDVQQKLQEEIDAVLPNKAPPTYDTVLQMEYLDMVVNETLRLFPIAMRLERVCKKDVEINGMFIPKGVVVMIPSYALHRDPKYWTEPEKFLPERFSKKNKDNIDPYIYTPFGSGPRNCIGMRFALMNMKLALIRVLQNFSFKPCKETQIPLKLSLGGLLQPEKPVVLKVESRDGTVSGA

[16] = biological target: T5, Rac GTPase-activating protein 1 (Homo sapiens, UniProt Q9H0H5); test: MgcRacGAP GTPase-activating activity inhibitors, confirmation, biochemical, ADP Hunter fluorescence, primary and confirmatory (AID 624330); format: functional
T5 sequence (Q9H0H5 whole entry): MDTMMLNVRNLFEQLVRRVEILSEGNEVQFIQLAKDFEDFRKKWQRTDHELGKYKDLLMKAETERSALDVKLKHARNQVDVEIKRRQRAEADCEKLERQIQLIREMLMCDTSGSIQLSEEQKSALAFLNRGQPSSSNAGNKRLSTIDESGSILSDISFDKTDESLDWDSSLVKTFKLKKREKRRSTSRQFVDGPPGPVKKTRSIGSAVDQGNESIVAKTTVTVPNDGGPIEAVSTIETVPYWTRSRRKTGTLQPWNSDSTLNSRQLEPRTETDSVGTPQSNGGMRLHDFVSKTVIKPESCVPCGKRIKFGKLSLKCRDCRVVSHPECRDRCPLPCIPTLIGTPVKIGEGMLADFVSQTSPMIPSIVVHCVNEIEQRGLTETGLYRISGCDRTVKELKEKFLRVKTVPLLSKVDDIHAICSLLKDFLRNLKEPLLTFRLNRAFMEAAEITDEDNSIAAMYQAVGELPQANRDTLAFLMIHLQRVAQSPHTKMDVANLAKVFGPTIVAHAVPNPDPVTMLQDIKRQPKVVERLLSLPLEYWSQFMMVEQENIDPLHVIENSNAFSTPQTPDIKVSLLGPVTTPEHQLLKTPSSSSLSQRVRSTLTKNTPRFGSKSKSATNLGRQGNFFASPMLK

[17] = Luminescence Cell-Based Dose Confirmation HTS to Identify Inhibitors of Platelet Dense Granule Release. [Related pubchem assays: 1663 (Primary HTS), 1678 (Summary of Project)]; format: functional
[18] = biological target: Luciferin 4-monooxygenase (Photinus pyralis, UniProt P08659); test: firefly luciferase enzyme inhibitors, dose response, biochemical, luminescence (AID 1891)
Sequence of Luciferin 4-monooxygenase (P08659 whole entry): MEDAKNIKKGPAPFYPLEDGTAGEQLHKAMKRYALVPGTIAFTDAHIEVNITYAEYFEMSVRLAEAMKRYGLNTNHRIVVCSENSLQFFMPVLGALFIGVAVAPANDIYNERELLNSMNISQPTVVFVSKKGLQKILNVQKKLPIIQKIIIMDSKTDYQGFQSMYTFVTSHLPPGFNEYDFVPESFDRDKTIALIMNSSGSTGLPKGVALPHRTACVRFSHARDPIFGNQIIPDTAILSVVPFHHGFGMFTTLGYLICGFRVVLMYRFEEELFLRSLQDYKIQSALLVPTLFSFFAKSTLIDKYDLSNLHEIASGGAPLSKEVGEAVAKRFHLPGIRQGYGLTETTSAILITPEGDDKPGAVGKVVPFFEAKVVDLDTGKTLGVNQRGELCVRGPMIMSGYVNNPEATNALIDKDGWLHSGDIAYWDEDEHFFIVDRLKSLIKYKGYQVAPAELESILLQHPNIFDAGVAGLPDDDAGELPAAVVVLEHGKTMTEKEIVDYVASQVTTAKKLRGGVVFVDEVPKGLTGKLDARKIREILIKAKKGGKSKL

COc1ccc2o/c(=N\O)c(C(=O)Nc3ccc(C)cc3)cc2c1
EC50 [1]: 16.6 µM (active) | EC50 [2]: 14.1 µM (active) | EC50 (H4): 15.2 µM (active) | CC50 (Vero): > 25 µM (active)

CCC(C)NCCCOc1c(C)cc(C)cc1Br (centres undefined)
IC50 [3]: 6.63 µM (not active)

COc1ccc(NC(=O)CSc2nnc(NC(C)=O)s2)c([N+](=O)[O-])c1
IC50 [4]: > 66 µM (inactive) | IC50 [5]: > 66 µM (inactive)

CCOc1ccc(-c2nn(-c3ccccc3)cc2/C=C2\SC(=S)N(C3CCS(=O)(=O)C3)C2=O)cc1 (centres undefined)
EC50 [6]: > 300 µM (not active) | EC50 [7]: 13.1 µM (active) | EC50 [8]: > 300 µM (not active)

CCn1nc(C)c(/C=C2\CCCC3=C2OC(N)=C(C#N)C3c2c(C)nn(CC)c2C)c1C (centres undefined)
EC50 [6]: 36 µM (active) | EC50 [8]: 51.8 µM (active)

COc1ccc(C=C2c3ccccc3C(=O)c3ccccc32)c(OC)c1
EC50 [9]: 2.6 µM (active) | EC50 (BJ [10]): 18.3 µM (inconclusive) | EC50 (BJ [11]): 2.8 µM (inconclusive) | CC50 (Vero): < 0.05 µM (active) | EC50 (BJ [12]): 2.33 µM (inconclusive)

C[C@@H]1CCCCO[C@@H](CN(C)C(=O)C2CCCCC2)[C@H](C)CN([C@H](C)CO)C(=O)c2cc(NS(=O)(=O)c3ccc(Cl)cc3)ccc2O1
AC50 (Paired box protein Pax-8): 4.99 µM (active)

O=C(CC(Sc1ccccc1)c1cccs1)c1ccco1 (centres undefined)
IC50 [4]: > 66 µM (inactive) | IC50 [5]: > 66 µM (inactive)

Cc1ccc(C(=O)CNc2cccc([N+](=O)[O-])c2)cc1
IC50 [4]: > 66 µM (inactive) | IC50 [5]: > 66 µM (inactive)

COC(=O)/C(C#N)=C/c1c(N2CCN(Cc3ccc4c(c3)OCO4)CC2)nc2c(C)cccn2c1=O
EC50 (cells [13]): > 350 µM (not active) | EC50 (cells [14]): > 350 µM (not active)

Cc1ccccc1NC(=O)/C(C#N)=C/c1ccc(-c2ccc(Cl)c(C(=O)O)c2)o1
EC50 [6]: > 300 µM (not active) | EC50 [8]: > 300 µM (not active)

O=C(COc1ccc(Cl)cc1)Nc1ccc(Cl)cn1
IC50 (cells [15]): 30.3 µM (active)

C=CCn1c(=S)[nH]c2nc3c(cc2c1=O)COC(C)(C)C3
EC50 [6]: > 300 µM (not active) | EC50 [8]: > 300 µM (not active)

CN(C1CCCC1)C1CCN(C(S)=Nc2cc(F)cc(F)c2)CC1
EC50 (cells [13]): > 350 µM (not active) | EC50 (cells [14]): > 350 µM (not active)

CCn1c(-c2ccco2)nc2ccccc21
IC50 (cells [15]): > 50 µM (active)

COc1ccc(C2(O)CCN(CCCCOc3ccccc3)CC2)cc1
IC50 (cells [15]): 32.8 µM (active)

COc1cccc(C2C3=C(N=c4s/c(=C\c5ccccc5O)c(=O)n42)c2ccccc2CC3)c1OC (centres undefined)
EC50 (cells [13]): > 350 µM (not active) | EC50 (cells [14]): > 350 µM (not active)

Cc1cc(Oc2ccccc2)nc(N2CCOCC2)n1
EC50 (cells [13]): > 350 µM (not active) | EC50 (cells [14]): > 350 µM (not active)

COc1cc(C2C(C#N)=C(N)OC3=C2C(=O)CCC3)cc(OC)c1OC(=O)N1CCOCC1 (centres undefined)
AC50 (Cytochrome P450 2C9): 22.4 µM (inconclusive) | EC50 [6]: > 300 µM (not active) | AC50 (Cytochrome P450 3A4): 25.1 µM (inconclusive) | EC50 [8]: > 300 µM (not active)

COc1cc(SC)ccc1C(=O)NCCc1ccccc1
EC50 (cells [13]): > 350 µM (not active) | EC50 (cells [14]): 18.9 µM (active)

O=C(COC(=O)COc1ccc(Nc2ccccc2)cc1)NCc1ccco1
IC50 [16]: 77.4 µM (active) | IC50 (cells [15]): 4.72 µM (active)

Fc1cccc(/C=N/Nc2nccnc2Cl)c1
EC50 [17]: 2.26 µM (active) | EC50 [9]: 11.3 µM (active) | EC50 (BJ [10]): > 75 µM (inconclusive) | EC50 (cells [13]): > 350 µM (not active) | EC50 (cells [14]): 7.47 µM (active) | EC50 (BJ [11]): 11.9 µM (active) | EC50 (BJ [12]): 11 µM (active) | EC50 [18]: 3.81 µM (active)

C/C(=N\NC(=O)c1ccc([N+](=O)[O-])c(C)c1)c1ccccc1Cl
IC50 (cells [15]): 42.2 µM (active)

Cc1cc(/C=C(\C#N)C(=O)Nc2ccccc2)c(C)n1-c1ccc(C(=O)O)cc1
EC50 [6]: > 300 µM (not active) | EC50 [8]: > 300 µM (not active)

CSc1nncc(/C(C)=N\Nc2ccccc2)n1
EC50 [6]: 41.3 µM (active) | AC50 (Cytochrome P450 3A4): 2.51 µM (inconclusive) | EC50 [8]: > 300 µM (not active)
